Source: patent US10968265B2, “Antibody-coupled cyclic peptide tyrosine tyrosine compounds as modulators of neuropeptide Y receptors” (Janssen Pharmaceutica NV, priority 2016, dated 2021)

Legend:
[1] = Weight loss in diet-induced obese mice: chronic dosing; format: in vivo, mouse; conditions: for body weight: 0.3 nmol/kg s.c. every day
Procedure: (§1) Compound 1 was evaluated for its ability to reduce foot intake and body weight and improve glucose homeostasis on repeat dosing in male DIO C57Bl/6 mice over a period of 8 days. Male DIO C57BL/6N mice (20 weeks of age, 14 weeks on high fat diet) were obtained from Taconic Laboratory. […] Animals were acclimated to the facility for at least one week prior to the start of the experiment.
(§2) The day prior to dosing, mice were grouped based on individual body weights. At 3:00-4:00 pm for each of the next 8 days, animals and food intake were weighed. […] After 8 days, mice are fasted for 5 hours and then given a 2 g/kg bolus of glucose orally at t=0. At t=0, 30, 60, 90, and 120 minutes post glucose challenge blood glucose is measured and at t=0, 30, and 90 minutes blood in drawn to measure plasma insulin. […] All data are presented as the mean±SEM (FIG. 7, FIG. 8, and Tables 8-11).

[2] = OGTT after 8 days of treatment in DIO mice; format: in vivo, mouse; conditions: 0.3 nmol/kg every day
Procedure: as §1, §2

[3] = Single dose, food intake and body weight in Sprague-Dawley rats; format: in vivo, rat; design: body weight change: unit not given here; conditions: single dose 0.3 nmol/kg s.c. (Dulaglutide); for absolute body weight: in g (unit assumed)
Procedure: Compound 1 was evaluated for its ability to reduce foot intake and body weight in Sprague-Dawley after a single dose. The animals were obtained from Charles River Labs (Wilmington, Mass.) at 200-225 g body weight and used within one week of delivery. They were housed one per cage on alpha dry bedding and a plastic tube for enrichment in a temperature-controlled room with 12-hour light/dark cycle. […] Animal weights were taken and recorded for each rat prior to dosing.
Body weights and food intake were measured 1, 2 and 3 days after dosing and the percentages of weight loss and reduction in food intake were calculated. […] All data are presented as the mean±SEM (Tables 18-20).

Substance: Dulaglutide
- fed Blood Glucose ([1]; 0.3 nmol/kg every day, after 8 days of treatment): 114 ± 13 mg/dL
- body weight ([1]; Day 0): 45.9 ± 0.6 g
- body weight ([1]; Day 1): 44.1 ± 0.6 g
- body weight ([1]; Day 2): 42.2 ± 0.6 g
- body weight ([1]; Day 3): 40.6 ± 0.6 g
- body weight ([1]; Day 4): 39.3 ± 0.6 g
- body weight ([1]; Day 5): 38.1 ± 0.7 g
- body weight ([1]; Day 6): 37.1 ± 0.8 g
- body weight ([1]; Day 7): 36.4 ± 1.0 g
- body weight ([1]; Day 8): 36.5 ± 1.1 g
- body weight ([1]; Day −1): 46.3 ± 0.6 g
- blood glucose (mg/dL) during OGTT ([2]; 0 min after glucose challenge): 76 ± 9 mg/dL
- insulin (ng/mL) during OGTT ([2]; 0 min after glucose challenge): 0.6 ± 0.1 ng/mL
- blood glucose (mg/dL) during OGTT ([2]; 30 min after glucose challenge): 151 ± 14 mg/dL
- insulin (ng/mL) during OGTT ([2]; 30 min after glucose challenge): 1.7 ± 0.2 ng/mL
- blood glucose (mg/dL) during OGTT ([2]; 60 min after glucose challenge): 174 ± 17 mg/dL
- blood glucose (mg/dL) during OGTT ([2]; 90 min after glucose challenge): 104 ± 10 mg/dL
- insulin (ng/mL) during OGTT ([2]; 90 min after glucose challenge): 0.7 ± 0.2 ng/mL
- blood glucose (mg/dL) during OGTT ([2]; 120 min after glucose challenge): 119 ± 9 mg/dL
- glucose Delta AUC (mg/dl/120 min) ([2]; OGTT): 6668 ± 1846 mg/dl/120 min
- glucose Total AUC (mg/dl/120 min) ([2]; OGTT): 15758 ± 1054 mg/dl/120 min
- body weight change ([3]; Day 0): 0.0 ± 0.0
- daily food intake ([3]; Day 0): 26.6 ± 0.8
- absolute body weight ([3]; Day 0): 270.3 ± 3.0
- body weight change ([3]; Day 1): 10.6 ± 1.6
- daily food intake ([3]; Day 1): 27.3 ± 1.2
- absolute body weight ([3]; Day 1): 280.8 ± 4.2
- body weight change ([3]; Day 2): 22.5 ± 0.8
- daily food intake ([3]; Day 2): 30.0 ± 0.7
- absolute body weight ([3]; Day 2): 292.47 ± 3.6
- body weight change ([3]; Day 3): 28.7 ± 0.6
- daily food intake ([3]; Day 3): 30.1 ± 0.7
- absolute body weight ([3]; Day 3): 299.0 ± 3.3
- body weight change ([3]; Day −1): −6.3 ± 0.8
- absolute body weight ([3]; Day −1): 264.0 ± 3.1
- Total Food Consumption ([3]; over three days): 87.4 ± 2.0
